# Results reported in patent publication US9682955B2, “Quinazoline derivatives useful as CB-1 inverse agonists” (Janssen Pharmaceutica NV, priority 2014, dated 2017).
# Legend:
# [1] = biological target: Human CB2R (Cannabanoid receptor 2) (Homo sapiens (Human), UniProt P34972); experiment: CB-2 in vitro cAMP assay (HTRF); type: cell-based; details: mean where tested more than once
# Method in brief: (§1)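 HEK-293 cells stably transfected with the human receptor, plated overnight at 4E5 cells/mL. Compounds given as 1/3 serial dilutions from 10 mM DMSO stocks. Stimulation in HBSS/5 mM HEPES/0.1% BSA with 0.5 mM IBMX and forskolin (1.5 μM in buffer); cAMP measured by competitive HTRF immunoassay (d2-cAMP, cryptate anti-cAMP) against a cAMP standard curve.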
# [2] = biological target: Human CB1R (Cannabanoid receptor 1) (Homo sapiens (Human), UniProt P21554); experiment: CB-1 in vitro cAMP assay (HTRF); type: cell-based; details: mean where tested more than once
# Method in brief: as §1
# Chain of Human CB1R (Cannabanoid receptor 1) (P21554 whole entry): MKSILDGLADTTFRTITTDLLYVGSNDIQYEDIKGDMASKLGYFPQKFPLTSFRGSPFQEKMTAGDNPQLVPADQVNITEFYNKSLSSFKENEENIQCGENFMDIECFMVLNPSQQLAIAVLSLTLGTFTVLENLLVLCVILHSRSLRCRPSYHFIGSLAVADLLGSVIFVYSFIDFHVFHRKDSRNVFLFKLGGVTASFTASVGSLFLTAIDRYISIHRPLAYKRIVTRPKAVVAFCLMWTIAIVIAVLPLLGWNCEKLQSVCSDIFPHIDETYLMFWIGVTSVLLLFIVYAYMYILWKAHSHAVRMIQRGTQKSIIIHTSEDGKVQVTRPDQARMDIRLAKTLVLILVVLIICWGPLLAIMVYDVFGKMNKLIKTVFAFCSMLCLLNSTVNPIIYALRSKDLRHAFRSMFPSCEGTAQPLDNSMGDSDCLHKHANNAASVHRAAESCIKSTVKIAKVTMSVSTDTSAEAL
# Chain of Human CB2R (Cannabanoid receptor 2) (P34972 whole entry): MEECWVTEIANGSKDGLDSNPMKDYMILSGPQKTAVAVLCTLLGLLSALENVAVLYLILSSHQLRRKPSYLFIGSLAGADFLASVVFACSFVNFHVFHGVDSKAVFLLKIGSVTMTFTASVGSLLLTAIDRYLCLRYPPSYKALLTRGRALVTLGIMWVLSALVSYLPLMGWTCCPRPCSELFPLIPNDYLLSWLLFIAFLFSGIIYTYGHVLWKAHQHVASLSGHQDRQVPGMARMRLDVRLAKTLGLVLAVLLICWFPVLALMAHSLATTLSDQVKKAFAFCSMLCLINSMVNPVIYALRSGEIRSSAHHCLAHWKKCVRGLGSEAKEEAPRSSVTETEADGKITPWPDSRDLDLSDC
EC50 [1],EC50 [2],Compound
> 10000 nM,4430 nM,"O=C(O)c1cccc(CNc2ncnc3ccc(C(c4ccc(Cl)cc4)c4ccc(Cl)cc4)cc23)c1 [Compound #59, 3-(((6-(bis(4-chlorophenyl)methyl)quinazolin-4-yl)amino)methyl)benzoic acid]"
10400 nM,9 nM,"CC(Nc1ncnc2ccc(C(c3ccc(Cl)cc3)c3ccc(Cl)cc3)cc12)c1cccc(C(F)(F)F)c1 (stereo not drawn) [compound 128, 6-(bis(4-chlorophenyl)methyl)-N-(1-(3-(trifluoromethyl)phenyl)ethyl)quinazolin-4-amine]"
> 10000 nM,120 nM,"Oc1ccc(CN2CCC(Nc3ncnc4ccc(C(c5ccc(Cl)cc5)c5ccc(Cl)cc5)cc34)CC2)cc1 [compound 27, 4-((4-(6-(bis(4-chlorophenyl)methyl)quinazolin-4-ylamino)piperidin-1-yl)methyl)phenol]"
3430 nM,98 nM,"O=C(O)COc1ccc(S(=O)(=O)N2CCC(Nc3ncnc4ccc(C(c5ccc(Cl)cc5)c5ccc(Cl)cc5)cc34)CC2)cc1 [Compound #3, 2-(4-((4-((6-(bis(4-chlorophenyl)methyl)quinazolin-4-yl)amino)piperidin-1-yl)sulfonyl)phenoxy)acetic acid]"
978 nM,8 nM,"O=S(=O)(N1CCC(Nc2ncnc3ccc(C(c4ccc(Cl)cc4)c4nccs4)cc23)CC1)C(F)(F)F (stereo not drawn) [Compound #146, 6-((4-chlorophenyl)(thiazol-2-yl)methyl)-N-(1-((trifluoromethyl)sulfonyl)piperidin-4-yl)quinazolin-4-amine]"
218 nM,23 nM,"NC(=O)c1cccc(N2CCC(Nc3ncnc4ccc(C(c5ccc(Cl)cc5)c5ccc(Cl)cc5)cc34)CC2)c1 [compound 96, 3-(4-(6-(bis(4-chlorophenyl)methyl)quinazolin-4-ylamino)piperidin-1-yl)benzamide]"
3050 nM,1240 nM,"O=C(O)c1cccc(CCN2CCC(Nc3ncnc4ccc(C(c5ccc(Cl)cc5)c5ccc(Cl)cc5)cc34)CC2)c1 [Compound #13, 3-(2-(4-(6-(bis(4-chlorophenyl)methyl)quinazolin-4-ylamino)piperidin-1-yl)ethyl)benzoic acid]"
> 10000 nM,4 nM,"O=S(=O)(c1ccccc1)N1CCC(Nc2ncnc3ccc(C(c4ccc(Cl)cc4)c4ccc(Cl)cc4)cc23)CC1 [compound 109, 6-(bis(4-chlorophenyl)methyl)-N-(1-(phenylsulfonyl)piperidin-4-yl)quinazolin-4-amine]"
2210 nM,7 nM,"O=C(CC(F)(F)F)N1CCC(Nc2ncnc3ccc(C(c4ccc(Cl)cc4)c4ccc(Cl)cc4)cc23)CC1 [Compound #133, 1-(4-((6-(bis(4-chlorophenyl)methyl)quinazolin-4-yl)amino)piperidin-1-yl)-3,3,3-trifluoropropan-1-one]"
> 10000 nM,4 nM,"COc1nc(NC2CCN(S(=O)(=O)C(F)(F)F)CC2)c2cc(C(c3ccc(Cl)cc3)c3ccc(Cl)cc3)ccc2n1 [Compound #103, 6-(bis(4-chlorophenyl)methyl)-2-methoxy-N-(1-((trifluoromethyl)sulfonyl)piperidin-4-yl)quinazolin-4-amine]"
1150 nM,1 nM,"Fc1ccc(C(c2ccc(F)cc2)c2ccc3ncnc(NC4CCN(c5ccccc5)CC4)c3c2)cc1 [Compound #67, 6-(bis(4-fluorophenyl)methyl)-N-(1-phenylpiperidin-4-yl)quinazolin-4-amine]"
> 10000 nM,254 nM,"CNc1nc(NC2CCN(S(=O)(=O)C(F)(F)F)CC2)c2cc(C(c3ccc(Cl)cc3)c3ccc(Cl)cc3)ccc2n1 [Compound #113, 6-(bis(4-chlorophenyl)methyl)-N2-methyl-N4-(1-((trifluoromethyl)sulfonyl)piperidin-4-yl)quinazoline-2,4-diamine]"
173 nM,4 nM,"COC(=O)Cc1ccc(N2CCC(Nc3ncnc4ccc(C(c5ccc(Cl)cc5)c5ccc(Cl)cc5)cc34)CC2)cc1 [Compound #79, Methyl 2-(4-(4-((6-(bis(4-chlorophenyl)methyl)quinazolin-4-yl)amino)piperidin-1-yl)phenyl)acetate]"
67 nM,0.5 nM,"COc1ccc(C(c2ccc(Cl)cc2)c2ccc3ncnc(NC4CCN(c5ccccc5)CC4)c3c2)cc1 (stereo not drawn) [Compound #58, 6-((4-chlorophenyl)(4-methoxyphenyl)methyl)-N-(1-phenylpiperidin-4-yl)quinazolin-4-amine]"
> 10000 nM,75 nM,"Nc1nc(NC2CCN(S(=O)(=O)C(F)(F)F)CC2)c2cc(C(c3ccc(Cl)cc3)c3ccc(Cl)cc3)ccc2n1 [Compound #107, 6-(bis(4-chlorophenyl)methyl)-N4-(1-((trifluoromethyl)sulfonyl)piperidin-4-yl)quinazoline-2,4-diamine]"
455 nM,35 nM,"O=S1(=O)CCN(CCNc2ncnc3ccc(C(c4ccc(Cl)cc4)c4ccc(Cl)cc4)cc23)CC1 [Compound #6, 4-(2-((6-(bis(4-chlorophenyl)methyl)quinazolin-4-yl)amino)ethyl)thiomorpholine 1,1-dioxide]"
806 nM,67 nM,"O=C(O)CCOCCOc1nc(NCc2cccc(C(F)(F)F)c2)c2cc(C(c3ccc(Cl)cc3)c3ccc(Cl)cc3)ccc2n1 [Compound #48, 3-(2-((6-(bis(4-chlorophenyl)methyl)-4-((3-(trifluoromethyl)benzyl)amino)quinazolin-2-yl)oxy)ethoxy)propanoic acid]"
434 nM,19 nM,"O=C(O)c1ccc(S(=O)(=O)N2CCC(Nc3ncnc4ccc(C(c5ccc(Cl)cc5)c5ccc(Cl)cc5)cc34)CC2)cc1Cl [Compound #23, 4-((4-((6-(bis(4-chlorophenyl)methyl)quinazolin-4-yl)amino)piperidin-1-yl)sulfonyl)-2-chlorobenzoic acid]"
2750 nM,163 nM,"FC(F)(F)c1ccc(Nc2ncnc3ccc(C(c4ccc(Cl)cc4)c4nccs4)cc23)cc1 (stereo not drawn) [Compound #144, 6-((4-chlorophenyl)(thiazol-2-yl)methyl)-N-(4-(trifluoromethyl)phenyl)quinazolin-4-amine]"
4700 nM,10 nM,"C[C@H](Nc1ncnc2ccc(C(c3ccc(Cl)cc3)c3ccc(Cl)cc3)cc12)c1cccc(C(F)(F)F)c1 (single isomer, unassigned) [Compound #112]"
616 nM,31 nM,"COc1nc(NC2CCN(S(=O)(=O)c3ccc(C(=O)O)cc3)CC2)c2cc(C(c3ccc(Cl)cc3)c3ccc(Cl)cc3)ccc2n1 [Compound #46, 4-((4-((6-(bis(4-chlorophenyl)methyl)-2-methoxyquinazolin-4-yl)amino)piperidin-1-yl)sulfonyl)benzoic acid]"
5690 nM,32 nM,"O=S(=O)(N1CCC(Nc2nc(O)nc3ccc(C(c4ccc(Cl)cc4)c4ccc(Cl)cc4)cc23)CC1)C(F)(F)F [Compound #114, 6-(bis(4-chlorophenyl)methyl)-4-((1-((trifluoromethyl)sulfonyl)piperidin-4-yl)amino)quinazolin-2-ol]"
1200 nM,222 nM,"O=C(c1ccc(S(=O)(=O)NCCO)cc1)N1CCC(Nc2ncnc3ccc(C(c4ccc(Cl)cc4)c4ccc(Cl)cc4)cc23)CC1 [Compound #45, 4-(4-((6-(bis(4-chlorophenyl)methyl)quinazolin-4-yl)amino)piperidine-1-carbonyl)-N-(2-hydroxyethyl)benzenesulfonamide]"
2850 nM,8 nM,"O=S(=O)(N1CCC(CNc2ncnc3ccc(C(c4ccc(Cl)cc4)c4ccc(Cl)cc4)cc23)CC1)C(F)(F)F [compound 135, 6-(bis(4-chlorophenyl)methyl)-N-((1-(trifluoromethylsulfonyl)piperidin-4-yl)methyl)quinazolin-4-amine]"
9000 nM,2460 nM,"NC(=O)CCC(=O)N1CCC(Nc2ncnc3ccc(C(c4ccc(Cl)cc4)c4ccc(Cl)cc4)cc23)CC1 [Compound #86, 4-(4-((6-(bis(4-chlorophenyl)methyl)quinazolin-4-yl)amino)piperidin-1-yl)-4-oxobutanamide]"
> 10000 nM,12 nM,"N#Cc1ccc(S(=O)(=O)N2CCC(Nc3ncnc4ccc(C(c5ccc(Cl)cc5)c5ccc(Cl)cc5)cc34)CC2)cc1 [Compound #52, 4-((4-((6-(bis(4-chlorophenyl)methyl)quinazolin-4-yl)amino)piperidin-1-yl)sulfonyl)benzonitrile]"
> 10000 nM,51 nM,"NCCOc1nc(NCc2ccc(C(F)(F)F)cc2)c2cc(C(c3ccc(Cl)cc3)c3ccc(Cl)cc3)ccc2n1 [Compound #72, 2-(2-aminoethoxy)-6-(bis(4-chlorophenyl)methyl)-N-(4-(trifluoromethyl)benzyl)quinazolin-4-amine]"
> 10000 nM,8 nM,"O=S(=O)(N1CCC(Nc2nc(C3CC3)nc3ccc(C(c4ccc(Cl)cc4)c4ccc(Cl)cc4)cc23)CC1)C(F)(F)F [Compound #108, 6-(bis(4-chlorophenyl)methyl)-2-cyclopropyl-N-(1-((trifluoromethyl)sulfonyl)piperidin-4-yl)quinazolin-4-amine]"
> 10000 nM,5750 nM,"O=C(CC(=O)N1CCC(Nc2ncnc3ccc(C(c4ccc(Cl)cc4)c4ccc(Cl)cc4)cc23)CC1)NCCO [compound 82, 3-(4-(6-(bis(4-chlorophenyl)methyl)quinazolin-4-ylamino)piperidin-1-yl)-N-(2-hydroxyethyl)-3-oxopropanamide]"
1930 nM,4 nM,"OCC(CO)COc1nc(NCc2cccc(C(F)(F)F)c2)c2cc(C(c3ccc(Cl)cc3)c3ccc(Cl)cc3)ccc2n1 [Compound #49, 2-(((6-(bis(4-chlorophenyl)methyl)-4-((3-(trifluoromethyl)benzyl)amino)quinazolin-2-yl)oxy)methyl)propane-1,3-diol]"
